In PubChem BioAssay (NCI) one finds TGI and GI50 data, which are given here for 17 compounds.

Test systems include COLO 205 colon; HL-60(TB) leukemia; IGROV1 ovarian; OVCAR-3 ovarian; SNB-19 CNS; SNB-75 CNS; U251 CNS; BT-549 breast; MDA-MB-435; T-47D breast.
What all share (assay): DTP human tumour cell line panel, 48 h

The TGI is the concentration giving total growth inhibition. A high value points to lower sensitivity of the cells. As usually defined, the GI50 is the concentration that inhibits growth by half.

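Interpolation was linear, between the two tested concentrations surrounding the appropriate level; five concentrations were tested over 48 hours in 96-well plates. GI50: concentration for 50% inhibition of growth. TGI marks complete inhibition of growth.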

Turning to `N#C[S-].[Ce+3].c1cnc2c(c1)ccc1cccnc12.c1cnc2c(c1)ccc1cccnc12.c1cnc2c(c1)ccc1cccnc12`, the TGI is 13.4 µM with COLO 205 colon; 48.3 µM with HL-60(TB) leukemia; > 100 µM in the assay with IGROV1 ovarian; 14.9 µM with OVCAR-3 ovarian; 22.5 µM with SNB-19 CNS; 22.2 µM in the assay on SNB-75 CNS. In addition, the TGI with U251 CNS worked out at 12.6 µM.
`COc1cc2c(cc1OC)-c1cc3ccc(OC)c(OC)c3c[n+]1CC2`: the TGI in the assay on BT-549 breast, in the assay on COLO 205 colon, in the assay on HL-60(TB) leukemia, in the assay on IGROV1 ovarian, in the assay on MDA-MB-435 and in the assay with OVCAR-3 ovarian was > 100 µM each time. Also, the TGI in the assay with SNB-19 CNS is 68 µM; in the assay on SNB-75 CNS, > 100 µM; in the assay with T-47D breast it was > 100 µM; in the assay with U251 CNS it was > 100 µM.
Turning to `O=C(NNC(=O)c1nsc2ccccc12)c1ccc(Cl)cc1`, the total growth inhibition concentration (TGI) in the assay on COLO 205 colon is 66 µM; with HL-60(TB) leukemia it was 49.8 µM; in the assay with IGROV1 ovarian it was > 100 µM; with OVCAR-3 ovarian it was 36.6 µM; with SNB-19 CNS, 42.3 µM; in the assay on SNB-75 CNS, 15.6 µM. This compound also yielded a TGI in the assay with U251 CNS of 33.7 µM.
As for `CCOC(=O)c1c(CN2CCCC2)n(-c2ccccc2)c2cc(Br)c(OC)cc12`, the TGI with BT-549 breast was 58.1 µM; with COLO 205 colon, 25.3 µM; with HL-60(TB) leukemia, 36 µM; with IGROV1 ovarian, 45.6 µM; with MDA-MB-435, > 100 µM; in the assay with OVCAR-3 ovarian it was 61.2 µM. Further, the TGI in the assay with SNB-19 CNS is > 100 µM; in the assay with SNB-75 CNS it was 62.5 µM; with T-47D breast, 38.6 µM; in the assay with U251 CNS it was 39.1 µM.
With `CNC(=O)Nc1ccccc1`, the total growth inhibition concentration (TGI) in the assay on BT-549 breast, in the assay on COLO 205 colon, in the assay on HL-60(TB) leukemia, in the assay on IGROV1 ovarian, in the assay with MDA-MB-435 and in the assay on OVCAR-3 ovarian was > 100 µM in each case. The TGI in the assay on SNB-19 CNS, in the assay on SNB-75 CNS, in the assay with T-47D breast and in the assay on U251 CNS was > 100 µM in each case.
Take `C[N+](C)(CCO)CCN1c2ccccc2Sc2ccccc21`: the TGI in the assay on COLO 205 colon, in the assay with HL-60(TB) leukemia, in the assay with IGROV1 ovarian, in the assay on MDA-MB-435, in the assay on OVCAR-3 ovarian and with SNB-19 CNS was > 10 µM each time. The TGI in the assay with SNB-75 CNS, in the assay with T-47D breast and with U251 CNS was > 10 µM throughout.
For the compound `O=C1C[C@H](CCC(=O)OCc2ccccc2)NC(=O)C[C@H](CCC(=O)OCc2ccccc2)NC(=O)C[C@H](CCC(=O)OCc2ccccc2)N1`, the TGI in the assay with BT-549 breast, in the assay with COLO 205 colon, with IGROV1 ovarian, in the assay with MDA-MB-435, in the assay with OVCAR-3 ovarian and in the assay with SNB-19 CNS was > 100 µM in each case. For the same compound, the TGI in the assay with SNB-75 CNS is 6.73 µM; in the assay with T-47D breast, > 100 µM; in the assay on U251 CNS, > 100 µM.
For the compound `Clc1ccc(-c2nnc(-c3c(Cl)c(Cl)c(Cl)c(Cl)c3-c3nc4ccccc4[nH]3)o2)cc1`, the TGI in the assay on BT-549 breast, in the assay with COLO 205 colon, in the assay with HL-60(TB) leukemia, in the assay with IGROV1 ovarian, in the assay with MDA-MB-435 and in the assay with OVCAR-3 ovarian was > 100 µM in each case. The TGI in the assay on SNB-75 CNS and in the assay with T-47D breast was > 100 µM in each case.
As to `COc1ccc(C)cc1Nc1nnc(-c2ccc(N)cc2)s1`, the TGI with BT-549 breast, in the assay on COLO 205 colon, in the assay with HL-60(TB) leukemia, with IGROV1 ovarian, with MDA-MB-435 and in the assay on OVCAR-3 ovarian was > 100 µM throughout. Also, the TGI in the assay with SNB-19 CNS, with SNB-75 CNS and with T-47D breast was > 100 µM in each case.
For the compound `O=c1/c(=C/c2ccc([N+](=O)[O-])o2)sc2n1[C@@H](c1ccc3c(c1)OCO3)C=C(c1cc(F)c(Cl)cc1Cl)N=2`, the TGI in the assay on BT-549 breast worked out at 35.1 µM; in the assay on COLO 205 colon, 71.4 µM; in the assay with HL-60(TB) leukemia it was 45.5 µM; with IGROV1 ovarian, 33.4 µM; with MDA-MB-435, 35.3 µM; in the assay on OVCAR-3 ovarian it was 35.3 µM. Further, the TGI was found to be 60.3 µM in the assay with SNB-19 CNS, 37.4 µM in the assay on SNB-75 CNS, 59.3 µM with T-47D breast and 46.5 µM in the assay on U251 CNS.
Regarding `CC(=O)C1=C(O)CCC1=O`, the concentration for total growth inhibition (TGI) with BT-549 breast, with COLO 205 colon, with HL-60(TB) leukemia, in the assay with IGROV1 ovarian, in the assay with MDA-MB-435 and with OVCAR-3 ovarian was > 100 µM each time. Also, the TGI in the assay with SNB-19 CNS, with SNB-75 CNS, with T-47D breast and in the assay on U251 CNS was > 100 µM in each case.
For the compound `Cn1c(=O)c2c(nc(NCCNc3nc4c(c(=O)n(C)c(=O)n4C)n3C)n2C)n(C)c1=O`, the TGI with BT-549 breast, in the assay on IGROV1 ovarian, with MDA-MB-435, with OVCAR-3 ovarian, in the assay on SNB-19 CNS and with SNB-75 CNS was > 100 µM in each case. Besides, the TGI in the assay with T-47D breast and with U251 CNS was > 100 µM each time.
Turning to `NC(CC(=O)O)(Cc1ccccc1)C(=O)O` (stereo unspecified), the TGI in the assay on BT-549 breast, in the assay with COLO 205 colon, in the assay with HL-60(TB) leukemia, in the assay with IGROV1 ovarian, in the assay with MDA-MB-435 and with OVCAR-3 ovarian was > 100 µM throughout. For the same compound, the total growth inhibition concentration (TGI) in the assay on SNB-19 CNS, in the assay with SNB-75 CNS, in the assay on T-47D breast and in the assay on U251 CNS was > 100 µM each time.
`C[C@]12CCC(=O)C=C1CC[C@@H]1[C@@H]2[C@@H](O)C[C@@]2(C)[C@H]1CC[C@]2(O)C(=O)COC(=O)C1CCCC1`: the TGI with BT-549 breast, in the assay on COLO 205 colon, in the assay on HL-60(TB) leukemia, in the assay on IGROV1 ovarian, in the assay on MDA-MB-435 and in the assay on OVCAR-3 ovarian was > 100 µM throughout. The total growth inhibition concentration (TGI) in the assay on SNB-19 CNS, in the assay with SNB-75 CNS, in the assay with T-47D breast and with U251 CNS was > 100 µM throughout.
Turning to `COc1ccc2nc3ccccc3c(NCc3ccc(C)cc3)c2c1`, the GI50 with BT-549 breast is 2.01 µM; with COLO 205 colon, 1.65 µM; in the assay with HL-60(TB) leukemia, 2.03 µM; with IGROV1 ovarian, 2.19 µM; in the assay on MDA-MB-435, 1.44 µM; in the assay with OVCAR-3 ovarian it was 2 µM. Further, the GI50 in the assay on SNB-19 CNS was 2.97 µM; with SNB-75 CNS, 1.49 µM; in the assay on T-47D breast, 1.89 µM; in the assay with U251 CNS, 1.84 µM. The TGI with BT-549 breast stood at 4.7 µM; with COLO 205 colon, 3.78 µM; in the assay on HL-60(TB) leukemia, 4.58 µM; in the assay with IGROV1 ovarian, 6.34 µM; in the assay on MDA-MB-435 it was 2.89 µM; with OVCAR-3 ovarian, 4.36 µM. The TGI in the assay on SNB-19 CNS was 11.4 µM; in the assay on SNB-75 CNS, 2.85 µM; with T-47D breast it was 4.42 µM; with U251 CNS, 3.69 µM.
As for `Cc1ccc(SSCCCCCS(=O)O)cc1`, the TGI was 55.8 µM in the assay on HL-60(TB) leukemia; 74.7 µM with OVCAR-3 ovarian; > 100 µM in the assay with SNB-19 CNS; 63.1 µM in the assay on SNB-75 CNS; 25.7 µM in the assay with U251 CNS.
`O=C(COc1ccc(Cl)cc1Cl)N/N=C/C=C/c1ccc([N+](=O)[O-])o1`: the TGI in the assay with BT-549 breast is 58 µM; in the assay on HL-60(TB) leukemia it was > 100 µM; in the assay on IGROV1 ovarian it was 6.79 µM; in the assay with MDA-MB-435, > 100 µM; in the assay on OVCAR-3 ovarian, > 100 µM; in the assay with SNB-19 CNS it was 41.4 µM. Moreover, the TGI in the assay on SNB-75 CNS is 59.2 µM; in the assay on T-47D breast it was > 100 µM; in the assay on U251 CNS it was > 100 µM.
